Active and inactive are the calls of the source. Cut-off read from the data, not from the text of the source, for most assays here: actives have a measured EC50 and inactives only a lower limit.
Assays:
INS1 = assay: beta cell apoptosis inhibitors, cytokine rescue, dose response, luminescence, retest (AID 449756); type: functional, cell-based; conditions: Rattus norvegicus;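 note: cell death triggered by IL-1 beta plus TNF-alpha plus IFN-gamma mixture; protective hits raise ATP signal compared with cytokine alone wells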
Streptococcus = assay: Group A Streptococcus viability loss, dose response, counter-screen for streptokinase expression inhibitor project, luminescence, BacTiterGlo (AID 1915); type: functional, organism-based;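 note: potency for reduction of bacterial viability or growth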
[1] = inhibitors of intracellular T. cruzi replication, confirmation, NIH3T3 host cells, beta-gal luminescence (AID 2044); type: functional, cell-based;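 note: intracellular parasites grown in NIH/3T3 mouse fibroblasts as host cells; luminescent beta-galactosidase reporter signal from transgenic T. cruzi replicating inside host cells; inhibitors lower the luminescence signal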
HEK293 = assay: inhibitors of LMP1-driven NF-kB reporter, dose response, cell-based, HEK293, luciferase, cherry-pick (AID 588343); type: functional; conditions: Homo sapiens
[2] = cytotoxicity toward NIH3T3 fibroblasts, dose response, counter-screen, cell-based, ATP luminescence, mouse fibroblasts (AID 2010); type: functional;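 note: cells exposed to compound for about 90 hours before reading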
[3] = molecular target: Latent membrane protein 1 (Human herpesvirus 4 (strain B95-8), UniProt P03230); assay: TES1-eGFP NF-kB reporter inhibition versus Tet-On dsRED, dose response, selectivity assay for LMP1 NF-kB inhibitor project, imaging, HEK293T, dual-color eGFP/dsRED, cherry-picks (AID 588398); type: functional, cell-based
Streptokinase A = molecular target: T1, Streptokinase A (Streptococcus pyogenes serotype M1, UniProt P10520); assay: S. pyogenes streptokinase expression inhibitors, potency, dose response, plasminogen activation absorbance, OD405 (AID 1914); type: functional, Streptococcus pyogenes M1 GAS;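 note: secreted streptokinase activity via plasminogen activation per viability signal from cell pellet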
T1 sequence (P10520 whole entry): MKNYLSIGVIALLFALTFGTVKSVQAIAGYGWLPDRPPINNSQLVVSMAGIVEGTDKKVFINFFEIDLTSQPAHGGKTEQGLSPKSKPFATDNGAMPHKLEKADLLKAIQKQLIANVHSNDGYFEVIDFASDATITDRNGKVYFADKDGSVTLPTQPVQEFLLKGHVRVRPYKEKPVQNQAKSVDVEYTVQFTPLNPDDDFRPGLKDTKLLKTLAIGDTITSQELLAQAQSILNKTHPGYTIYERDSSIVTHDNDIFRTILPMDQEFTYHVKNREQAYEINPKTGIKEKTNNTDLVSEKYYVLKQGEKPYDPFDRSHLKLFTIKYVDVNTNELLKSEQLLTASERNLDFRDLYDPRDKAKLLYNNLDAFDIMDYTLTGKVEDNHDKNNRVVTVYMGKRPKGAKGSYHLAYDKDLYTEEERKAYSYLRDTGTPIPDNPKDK

[4] = system: Streptococcus sp. 'group A'; assay: growth inhibition of control SK(-) GAS strain, dose response, counter-screen for streptokinase expression inhibitor project, luminescence, kanamycin, BacTiterGlo, confirmation (AID 1900); type: functional, organism-based

Chain of Latent membrane protein 1 (P03230 whole entry): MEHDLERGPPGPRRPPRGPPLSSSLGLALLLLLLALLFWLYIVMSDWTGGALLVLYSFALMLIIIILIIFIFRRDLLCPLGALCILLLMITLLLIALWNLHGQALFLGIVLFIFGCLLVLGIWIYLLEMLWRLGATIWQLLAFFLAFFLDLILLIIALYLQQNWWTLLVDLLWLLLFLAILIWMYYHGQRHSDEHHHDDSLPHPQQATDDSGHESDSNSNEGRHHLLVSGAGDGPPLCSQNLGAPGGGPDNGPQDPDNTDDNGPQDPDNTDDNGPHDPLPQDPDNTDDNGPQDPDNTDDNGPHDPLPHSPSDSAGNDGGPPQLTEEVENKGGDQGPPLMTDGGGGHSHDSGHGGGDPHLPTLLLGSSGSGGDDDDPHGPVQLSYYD

For `CCCc1sc(N/N=C/c2ccccn2)nc1-c1ccc(Br)cc1`, the AC50 (INS1) was 8.41 µM (active), the EC50 (Streptococcus) was 8.45 µM (active) and the EC50 [1] was 0.202 µM (active). For the same compound, the AC50 (HEK293) was 22.3 µM (active), the EC50 [2] was 2.38 µM (active) and the AC50 [3] was 32.3 µM (active). For the same compound, the EC50 (Streptokinase A) was > 150 µM (not active) and the EC50 [4] was 0.442 µM (active).

Reference: ChEMBL document CHEMBL1201862, “PubChem BioAssay data set” (2004)
